Experimental data from patent US8906939B2, “3-cyano-4-(4-tetrahydropyran-phenyl)-pyridin-2-one derivatives” (Janssen Pharmaceuticals, Inc., priority 2007, dated 2014).

Tests used:
[1] = target: T1, human mGluR2 receptor (Homo sapiens, UniProt Q14416); experiment: [35S]GTPγS binding assay, mGluR2 positive allosteric modulation (GTPγS-PAM); type: biochemical; settings: membranes from CHO cells transfected with human mGluR2; in presence of glutamate at EC25 concentration; averages of duplicate values of 11-concentration response curves; read-out: GTPgS - hR2 PAM pEC50 (converted)
T1 construct: expressed in transfected cells; host or cells: CHO cells (membrane preparation)
Description: The compounds provided in the present invention are positive allosteric modulators of mGluR2. These compounds appear to potentiate glutamate responses by binding to an allosteric site other than the glutamate binding site. The response of mGluR2 to a concentration of glutamate is increased when compounds of formula (I) are present. Compounds of formula (I) are expected to have their effect substantially at mGluR2 by virtue of their ability to enhance the function of the receptor. The behaviour of positive allosteric modulators tested at mGluR2 using the [^35S]GTPγS binding assay method described below and which is suitable for the identification of such compounds, and more particularly the compounds according to formula (I), are shown in Table 3.
[^35S]GTPγS Binding Assay
The [^35S]GTPγS binding assay is a functional membrane-based assay used to study G-protein coupled receptor (GPCR) function whereby incorporation of a non-hydrolysable form of GTP, [^35S]GTPγS (guanosine 5′-triphosphate, labelled with […] ^35S), is measured. The G-protein […] subunit catalyzes the exchange of guanosine 5′-diphosphate (GDP) by guanosine triphosphate (GTP) and on activation of the GPCR by an agonist, [^35S]GTPγS, becomes incorporated and cannot be cleaved to continue the exchange cycle (Harper (1998) Current Protocols in Pharmacology 2.6.1-10, John Wiley & Sons, Inc.). […] Here we describe the use of the [^35S]GTPγS binding assay using membranes from cells transfected with the human mGluR2 receptor and adapted from Schaffhauser et al ((2003) Molecular Pharmacology 4:798-810) for the detection of the positive allosteric modulation (PAM) properties of the compounds of this invention.
CHO-cells were cultured to pre-confluence and stimulated with 5 mM butyrate for 24 hours, prior to washing in PBS, and then collection by scraping in homogenisation buffer (50 mM Tris-HCl buffer, pH 7.4, 4° C.). Cell lysates were homogenized briefly (15s) using an ultra-turrax homogenizer. The homogenate was centrifuged at 23 500×g for 10 minutes and the supernatant discarded. The pellet was resuspended in 5 mM Tris-HCl, pH 7.4 and centrifuged again (30 000×g, 20 min, 4° C.). The final pellet was resuspended in 50 mM HEPES, pH 7.4 and stored at −80° C. in appropriate aliquots before use. Protein concentration was determined by the Bradford method (Bio-Rad, USA) with bovine serum albumin as standard.
Measurement of mGluR2 positive allosteric modulatory activity of test compounds in membranes containing human mGluR2 was performed using frozen membranes that were thawed and briefly homogenised prior to pre-incubation in 96-well microplates (15 μg/assay well, 30 minutes, 30° C.) in assay buffer (50 mM HEPES pH 7.4, 100 mM NaCl, 3 mM MgCl2, 50 μM GDP, 10 μg/ml saponin,) with increasing concentrations of positive allosteric modulator (from 0.3 nM to 50 μM) and either a minimal pre-determined concentration of glutamate (PAM assay), or no added glutamate. For the PAM assay, membranes were pre-incubated with glutamate at EC25 concentration, i.e. a concentration that gives 25% of the maximal response glutamate, and is in accordance to published data (Pin et al. (1999) Eur. J. Pharmacol. 375:277-294). After addition of [^35S]GTPγS (0.1 nM, f.c.) to achieve a total reaction volume of 200 μl, microplates were shaken briefly and further incubated to allow [^35S]GTPγS incorporation on activation (30 minutes, 30° C.). The reaction was stopped by rapid vacuum filtration over glass-fibre filter plates (Unifilter 96-well GF/B filter plates, Perkin-Elmer, Downers Grove, USA) microplate using a 96-well plate cell harvester (Filtermate, Perkin-Elmer, USA), and then by washing three times with 300 μl of ice-cold wash buffer (Na2PO4.2H2O 10 mM, NaH2PO4.H2O 10 mM, pH=7.4). […]

T1 sequence (Q14416 19-872): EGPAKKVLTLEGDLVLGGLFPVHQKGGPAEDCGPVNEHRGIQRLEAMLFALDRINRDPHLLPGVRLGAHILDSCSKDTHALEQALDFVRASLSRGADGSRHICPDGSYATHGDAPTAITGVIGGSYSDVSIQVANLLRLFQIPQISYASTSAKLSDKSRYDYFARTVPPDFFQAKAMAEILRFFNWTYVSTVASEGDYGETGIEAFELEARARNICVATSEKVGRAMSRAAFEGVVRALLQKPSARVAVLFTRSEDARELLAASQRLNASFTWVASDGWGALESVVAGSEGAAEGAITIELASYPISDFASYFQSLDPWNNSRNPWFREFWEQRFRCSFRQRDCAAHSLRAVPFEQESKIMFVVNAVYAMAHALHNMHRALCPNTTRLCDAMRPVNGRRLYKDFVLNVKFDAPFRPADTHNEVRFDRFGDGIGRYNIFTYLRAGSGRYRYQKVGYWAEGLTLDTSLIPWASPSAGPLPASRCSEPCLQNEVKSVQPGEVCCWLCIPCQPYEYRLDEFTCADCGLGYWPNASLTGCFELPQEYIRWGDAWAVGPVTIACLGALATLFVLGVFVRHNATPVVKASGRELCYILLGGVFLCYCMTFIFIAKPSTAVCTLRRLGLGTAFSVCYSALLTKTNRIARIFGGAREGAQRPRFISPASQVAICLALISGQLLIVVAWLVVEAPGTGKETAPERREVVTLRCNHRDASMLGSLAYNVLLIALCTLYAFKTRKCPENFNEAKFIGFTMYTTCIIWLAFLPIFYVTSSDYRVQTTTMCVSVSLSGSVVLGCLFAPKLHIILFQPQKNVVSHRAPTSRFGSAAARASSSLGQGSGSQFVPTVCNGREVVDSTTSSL

melting point [°C]	EC50 [1] [nM]	SMILES
249.5	~1000	N#Cc1c(-c2ccc(NC3CCOCC3)c(F)c2)ccn(CC2CC2)c1=O [Compound 1, 1-Cyclopropylmethyl-4-[3-fluoro-4-(tetrahydro-pyran-4-ylamino)-phenyl]-2-oxo-1,2-dihydro-pyridine-3-carbonitrile]
–	676	N#Cc1c(-c2ccc(NC3CCOCC3)c(Cl)c2)ccn(CC2CC2)c1=O [Compound 2, 1-Cyclopropylmethyl-4-[3-chloro-4-(tetrahydro-pyran-4-ylamino)-phenyl]-2-oxo-1,2-dihydro-pyridine-3-carbonitrile]
–	1230	N#Cc1c(-c2ccc(NC3CCOCC3)c(C(F)(F)F)c2)ccn(CC2CC2)c1=O [Compound 3, 1-Cyclopropylmethyl-2-oxo-4-[4-(tetrahydro-pyran-4-ylamino)-3-trifluoromethyl-phenyl]-1,2-dihydro-pyridine-3-carbonitrile]
–	282	N#Cc1c(-c2ccc(OC3CCOCC3)c(Cl)c2)ccn(CCC2CC2)c1=O [Compound 4, 4-[3-Chloro-4-(tetrahydro-pyran-4-yloxy)-phenyl]-1-(2-cyclopropyl-ethyl)-2-oxo-1,2-dihydro-pyridine-3-carbonitrile]
–	162	CC(C)CCn1ccc(-c2ccc(OC3CCOCC3)c(Cl)c2)c(C#N)c1=O [Compound 5]
> 300	219	N#Cc1c(-c2ccc(NC3CCOCC3)c(Cl)c2)ccn(CCC2CC2)c1=O [Compound 6]
–	437	N#Cc1c(-c2ccc(NC3CCOCC3)c(C(F)(F)F)c2)ccn(CCC2CC2)c1=O [Compound 7]
195	2510	CCCCn1ccc(-c2ccc(NC3CCOCC3)cc2)c(C#N)c1=O [Compound 8]
136	631	CCCCn1ccc(-c2ccc(OC3CCOCC3)cc2F)c(C#N)c1=O [Compound 9]
–	1580	CC(C)CCn1ccc(-c2ccc(NC3CCOCC3)cc2F)c(C#N)c1=O [Compound 10]
–	398	CC(C)CCn1ccc(-c2ccc(NC3CCOCC3)c(F)c2)c(C#N)c1=O [Compound 11]
–	316	CC(C)CCn1ccc(-c2ccc(NC3CCOCC3)c(Cl)c2)c(C#N)c1=O [Compound 12]
